Data as given in paper PMC8185074, “Anchor extension: a structure-guided approach to design cyclic peptides targeting enzyme active sites” (Nature Communications, 2021).
Read-outs that look alike come from different tables or passages of the source. Peptide text beside a SMILES is read from it.

Tests used:
HDAC4 = target: T1, HDAC4 (Homo sapiens, UniProt P56524); settings: Supp. Table 1; cited from earlier work
T1 construct: purchased BPS Biosciences

HDAC6 [1] = settings: cited from earlier work
HDAC2 [2] = target: T2, HDAC2 (Homo sapiens, UniProt Q92769); assay: HDAC2 inhibition, full IC50 measurement (Reaction Biology; fluorogenic p53 peptide RHKK(Ac)AMC); format: biochemical; settings: for HDAC2 activity raw data (signal): single trial
T2 construct: purchased Reaction Biology Corporation (assay run by the CRO)
Summary of the method: (§1)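 The reaction was a 1 h, 30 °C incubation of enzyme, acoustically added peptide and 50 μM p53-derived AMC substrate in pH 8.0 Tris buffer with NaCl, KCl, MgCl2, 1 mg/ml BSA and 1% DMSO. Duplicate values were averaged.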

HDAC6 [3] = target: T3, HDAC6 (Homo sapiens, UniProt Q9UBN7); assay: HDAC6 inhibition, full IC50 measurement (Reaction Biology; fluorogenic p53 peptide RHKK(Ac)AMC); format: biochemical; settings: for HDAC6 activity raw data (signal): single trial
T3 construct: purchased Reaction Biology Corporation (assay run by the CRO)
T3 sequence (Q9UBN7 1-1215): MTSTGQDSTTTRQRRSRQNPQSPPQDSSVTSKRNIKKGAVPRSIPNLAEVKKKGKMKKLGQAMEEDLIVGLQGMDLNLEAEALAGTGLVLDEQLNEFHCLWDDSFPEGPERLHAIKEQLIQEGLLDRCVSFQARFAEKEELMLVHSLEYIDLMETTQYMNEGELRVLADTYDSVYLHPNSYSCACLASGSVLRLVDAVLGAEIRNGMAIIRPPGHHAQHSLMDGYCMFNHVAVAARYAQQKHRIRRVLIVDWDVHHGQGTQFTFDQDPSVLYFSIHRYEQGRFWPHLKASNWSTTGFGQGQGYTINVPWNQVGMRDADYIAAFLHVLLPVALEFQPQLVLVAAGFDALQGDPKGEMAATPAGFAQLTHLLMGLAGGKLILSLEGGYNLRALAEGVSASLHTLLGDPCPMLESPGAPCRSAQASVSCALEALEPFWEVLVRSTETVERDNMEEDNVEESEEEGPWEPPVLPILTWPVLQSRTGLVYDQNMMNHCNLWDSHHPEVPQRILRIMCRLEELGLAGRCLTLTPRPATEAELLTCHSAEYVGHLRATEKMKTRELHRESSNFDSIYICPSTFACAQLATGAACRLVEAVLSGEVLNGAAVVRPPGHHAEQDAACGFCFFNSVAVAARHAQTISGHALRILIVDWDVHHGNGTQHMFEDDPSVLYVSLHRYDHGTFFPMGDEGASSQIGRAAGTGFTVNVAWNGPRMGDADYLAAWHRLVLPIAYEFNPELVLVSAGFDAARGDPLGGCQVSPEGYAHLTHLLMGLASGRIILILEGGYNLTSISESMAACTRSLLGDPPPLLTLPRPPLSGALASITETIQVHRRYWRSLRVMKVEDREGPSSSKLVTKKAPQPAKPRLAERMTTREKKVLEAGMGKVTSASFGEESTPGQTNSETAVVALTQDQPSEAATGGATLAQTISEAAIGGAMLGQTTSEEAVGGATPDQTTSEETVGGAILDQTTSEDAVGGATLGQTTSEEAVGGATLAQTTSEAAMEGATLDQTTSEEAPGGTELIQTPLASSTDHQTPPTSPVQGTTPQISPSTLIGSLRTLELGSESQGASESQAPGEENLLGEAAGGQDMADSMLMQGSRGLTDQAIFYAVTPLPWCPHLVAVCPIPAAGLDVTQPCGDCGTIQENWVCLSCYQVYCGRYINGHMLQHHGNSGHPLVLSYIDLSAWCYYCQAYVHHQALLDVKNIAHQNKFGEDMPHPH
Summary of the method: as §1

HDAC3 = target: T4, HDAC3 (Homo sapiens, UniProt O15379); assay: HDAC3 inhibition, full IC50 measurement (Reaction Biology; fluorogenic p53 peptide RHKK(Ac)AMC); format: biochemical; settings: for HDAC3 activity raw data (signal): single trial
T4 construct: purchased Reaction Biology Corporation (assay run by the CRO)
Experimental: (§2) The assay was performed using 50 μM fluorogenic peptide from p53 residues 379-382 [RHKK(Ac)AMC] in a base reaction buffer of 50 mM Tris-HCl at pH 8.0, 137 mM NaCl, 2.7 mM KCl, 1 mM MgCl2, and freshly added 1 mg/ml BSA and 1% DMSO. Peptides were first dissolved in DMSO and then added to the reaction mixture with the enzyme using acoustic technique, enough to reach the desired concentration for that assay point. Peptide concentrations were calculated based on mass of lyophilized peptide and its molecular weight. The substrate was then added and incubated for 1 hour at 30 °C in a sealed container. After the incubation, developer was added to stop the reaction and develop color. Kinetic measurements were then performed for 20 min with Envision with 5 min intervals (Ex/Em = 360/460 nm). The endpoint after plateau was taken for IC50 measurement.
(§3) In cases where duplicate measures are used, average data is reported in the main text or Supplementary Tables.

HDAC2 [4] = target: T2, HDAC2; assay: Initial HDAC2 IC50 estimate (BPS Biosciences HDAC fluorogenic assay kit); format: biochemical; settings: Supplementary Dataset 2; read-out: HDAC2 activity (initial activity)
Summary of the method: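 Inhibition measured by kit-based fluorogenic HDAC activity assays, with each point in duplicate or triplicate. Values come from a full 1 µM–100 pM series (1:10 steps) or are range estimates from just 20 nM and 200 nM.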

HDAC1 [5] = target: T5, HDAC1 (Homo sapiens, UniProt Q13547); assay: HDAC1 inhibition, full IC50 measurement (Reaction Biology; fluorogenic p53 peptide RHKK(Ac)AMC); format: biochemical; settings: Supp. Table 1
T5 construct: purchased Reaction Biology Corporation (assay run by the CRO)
Experimental: as §2, §3

HDAC8 = target: T6, HDAC8 (Homo sapiens, UniProt Q9BY41); assay: HDAC8 inhibition, full IC50 measurement (Reaction Biology; fluorogenic p53 peptide RHKK(Ac)AMC); format: biochemical; settings: Supp. Table 1
T6 construct: purchased Reaction Biology Corporation (assay run by the CRO)
T6 sequence (Q9BY41 1-377): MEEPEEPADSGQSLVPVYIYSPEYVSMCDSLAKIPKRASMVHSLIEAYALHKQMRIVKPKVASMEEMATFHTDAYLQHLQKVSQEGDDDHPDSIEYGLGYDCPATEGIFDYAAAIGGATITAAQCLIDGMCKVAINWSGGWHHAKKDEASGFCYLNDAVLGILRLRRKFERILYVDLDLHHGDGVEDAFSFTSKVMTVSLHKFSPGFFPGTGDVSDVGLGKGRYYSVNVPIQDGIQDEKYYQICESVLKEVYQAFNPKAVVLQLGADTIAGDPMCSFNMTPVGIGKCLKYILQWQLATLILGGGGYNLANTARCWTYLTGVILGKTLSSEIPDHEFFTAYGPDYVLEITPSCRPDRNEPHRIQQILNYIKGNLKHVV
Experimental: as §2, §3

HDAC1 [6] = target: T5, HDAC1; settings: Supp. Table 1; cited from earlier work

T4 sequence (O15379 whole entry): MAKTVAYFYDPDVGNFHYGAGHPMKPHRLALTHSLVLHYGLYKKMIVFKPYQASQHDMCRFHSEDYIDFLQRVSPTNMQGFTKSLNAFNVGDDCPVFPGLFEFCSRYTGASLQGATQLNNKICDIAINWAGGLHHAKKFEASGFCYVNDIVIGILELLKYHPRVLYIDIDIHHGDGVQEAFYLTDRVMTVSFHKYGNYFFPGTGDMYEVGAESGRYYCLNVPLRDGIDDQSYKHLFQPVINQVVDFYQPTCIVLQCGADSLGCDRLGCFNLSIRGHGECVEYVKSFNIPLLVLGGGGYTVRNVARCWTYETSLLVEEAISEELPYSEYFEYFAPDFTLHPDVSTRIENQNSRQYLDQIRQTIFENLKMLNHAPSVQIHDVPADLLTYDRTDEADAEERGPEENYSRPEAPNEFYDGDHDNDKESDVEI
T4 sequence (Q9Y618 395-489 partner limits assumed): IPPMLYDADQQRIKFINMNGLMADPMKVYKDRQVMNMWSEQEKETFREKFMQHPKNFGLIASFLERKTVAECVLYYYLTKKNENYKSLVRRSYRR
T2 sequence (Q92769 whole entry): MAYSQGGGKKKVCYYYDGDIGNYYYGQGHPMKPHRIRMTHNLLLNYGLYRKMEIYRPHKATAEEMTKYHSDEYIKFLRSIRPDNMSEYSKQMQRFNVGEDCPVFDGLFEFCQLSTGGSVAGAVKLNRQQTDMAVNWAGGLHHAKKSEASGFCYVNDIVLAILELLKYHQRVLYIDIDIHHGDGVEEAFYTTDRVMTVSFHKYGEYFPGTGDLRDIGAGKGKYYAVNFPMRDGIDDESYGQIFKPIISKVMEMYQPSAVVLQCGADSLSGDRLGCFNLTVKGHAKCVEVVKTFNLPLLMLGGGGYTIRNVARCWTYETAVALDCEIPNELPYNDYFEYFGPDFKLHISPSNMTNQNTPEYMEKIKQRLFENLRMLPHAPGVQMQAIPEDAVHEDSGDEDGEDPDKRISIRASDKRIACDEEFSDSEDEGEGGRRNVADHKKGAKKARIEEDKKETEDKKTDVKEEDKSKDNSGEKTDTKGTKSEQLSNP
T1 sequence (P56524 whole entry): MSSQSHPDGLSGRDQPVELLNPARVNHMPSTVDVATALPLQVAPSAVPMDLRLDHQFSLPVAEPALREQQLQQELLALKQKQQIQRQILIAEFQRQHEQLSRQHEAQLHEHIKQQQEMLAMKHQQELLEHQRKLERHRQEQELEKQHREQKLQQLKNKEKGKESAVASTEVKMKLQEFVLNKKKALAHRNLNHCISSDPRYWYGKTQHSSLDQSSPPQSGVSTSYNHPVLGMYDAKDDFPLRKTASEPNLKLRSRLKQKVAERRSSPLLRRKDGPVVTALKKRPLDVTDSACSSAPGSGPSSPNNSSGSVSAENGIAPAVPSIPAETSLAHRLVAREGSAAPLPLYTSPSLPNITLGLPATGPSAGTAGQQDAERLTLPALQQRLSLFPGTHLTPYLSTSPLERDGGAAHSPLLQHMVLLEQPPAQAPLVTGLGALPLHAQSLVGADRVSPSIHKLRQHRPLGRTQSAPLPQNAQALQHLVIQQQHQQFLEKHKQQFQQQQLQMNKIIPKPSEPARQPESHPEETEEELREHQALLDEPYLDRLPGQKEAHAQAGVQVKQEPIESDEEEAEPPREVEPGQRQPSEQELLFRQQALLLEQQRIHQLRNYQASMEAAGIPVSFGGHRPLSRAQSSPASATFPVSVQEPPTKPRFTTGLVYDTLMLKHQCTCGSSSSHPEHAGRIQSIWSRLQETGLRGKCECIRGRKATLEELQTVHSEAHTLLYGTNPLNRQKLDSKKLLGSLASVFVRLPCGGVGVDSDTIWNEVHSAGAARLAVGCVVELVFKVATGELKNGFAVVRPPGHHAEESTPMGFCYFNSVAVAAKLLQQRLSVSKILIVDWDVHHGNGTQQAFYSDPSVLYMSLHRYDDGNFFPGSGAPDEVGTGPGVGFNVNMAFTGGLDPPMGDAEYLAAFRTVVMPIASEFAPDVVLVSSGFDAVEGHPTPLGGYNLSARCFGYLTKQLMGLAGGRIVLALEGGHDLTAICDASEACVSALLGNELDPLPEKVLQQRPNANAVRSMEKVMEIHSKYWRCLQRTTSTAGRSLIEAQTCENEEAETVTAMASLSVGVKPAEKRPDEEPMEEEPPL
T5 sequence (Q13547 whole entry): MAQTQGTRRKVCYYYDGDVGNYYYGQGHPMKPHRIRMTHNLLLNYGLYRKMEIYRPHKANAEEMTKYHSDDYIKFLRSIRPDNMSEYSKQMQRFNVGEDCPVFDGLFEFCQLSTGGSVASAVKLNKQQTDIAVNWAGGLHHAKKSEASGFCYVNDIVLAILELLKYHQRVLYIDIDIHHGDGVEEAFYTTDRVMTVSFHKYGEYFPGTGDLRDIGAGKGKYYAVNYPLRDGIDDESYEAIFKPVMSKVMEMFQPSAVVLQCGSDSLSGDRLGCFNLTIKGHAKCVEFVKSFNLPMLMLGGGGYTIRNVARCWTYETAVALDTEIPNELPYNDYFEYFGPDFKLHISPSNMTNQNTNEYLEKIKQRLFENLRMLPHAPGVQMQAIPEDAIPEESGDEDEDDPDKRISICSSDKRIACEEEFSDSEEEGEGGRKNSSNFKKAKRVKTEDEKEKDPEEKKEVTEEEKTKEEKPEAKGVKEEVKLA

Compound: C/C=C1\NC(=O)[C@H]2CSSCC/C=C/[C@H](CC(=O)N[C@H](C(C)C)C(=O)N2)OC(=O)[C@H](C(C)C)NC1=O [Romidepsin]
- IC50 (HDAC4): 25 ± 7.3 nM

Compound: N=C(N)NCCC[C@H]1NC(=O)[C@H]2CCCN2C(=O)[C@@H](Cc2c[nH]cn2)NC(=O)[C@H](Cc2ccc(O)cc2)NC(=O)[C@H](CCCCCS)NC(=O)[C@H](CCc2ccccc2)NC(=O)[C@H](CCCCN)NC1=O [des3.2.5, SHA-Tyr-dHis-dPro-dArg-Lys-C27] (HELM PEPTIDE1{K.[O=C([C@H](CCc1ccccc1)N[*:1])[*:2]].[O=C([C@H](CCCCCS)N[*:1])[*:2]].Y.[dH].[dP].[dR]}$PEPTIDE1,PEPTIDE1,1:R1-7:R2$$$V2.0)
- 2-Selectivity: fold potency for HDAC2 over HDAC6 (HDAC2 [2]): 0.40 fold
- HDAC2 activity raw data (signal) (HDAC2 [2]; Conc. 1.00E-04 M): -10024
- HDAC2 activity raw data (signal) (HDAC2 [2]; Conc. 1.11E-05 M): -3664
- HDAC2 activity raw data (signal) (HDAC2 [2]; Conc. 1.23E-06 M): 23341
- HDAC2 activity raw data (signal) (HDAC2 [2]; Conc. 1.37E-07 M): 186535
- HDAC2 activity raw data (signal) (HDAC2 [2]; Conc. 1.52E-08 M): 378556
- HDAC2 activity raw data (signal) (HDAC2 [2]; Conc. 3.33E-05 M): -4061
- HDAC2 activity raw data (signal) (HDAC2 [2]; Conc. 3.70E-06 M): 7985
- HDAC2 activity raw data (signal) (HDAC2 [2]; Conc. 4.12E-07 M): 87059
- HDAC2 activity raw data (signal) (HDAC2 [2]; Conc. 4.57E-08 M): 320609
- HDAC2 activity raw data (signal) (HDAC2 [2]; Conc. 5.08E-09 M): 410566
- HDAC6 activity raw data (signal) (HDAC6 [3]; Conc. 1.00E-04 M): -6596
- HDAC6 activity raw data (signal) (HDAC6 [3]; Conc. 1.11E-05 M): -4177
- HDAC6 activity raw data (signal) (HDAC6 [3]; Conc. 1.23E-06 M): 2489
- HDAC6 activity raw data (signal) (HDAC6 [3]; Conc. 1.37E-07 M): 40408
- HDAC6 activity raw data (signal) (HDAC6 [3]; Conc. 1.52E-08 M): 187931
- HDAC6 activity raw data (signal) (HDAC6 [3]; Conc. 3.33E-05 M): -7167
- HDAC6 activity raw data (signal) (HDAC6 [3]; Conc. 3.70E-06 M): 1736
- HDAC6 activity raw data (signal) (HDAC6 [3]; Conc. 4.12E-07 M): 17454
- HDAC6 activity raw data (signal) (HDAC6 [3]; Conc. 4.57E-08 M): 101146
- HDAC6 activity raw data (signal) (HDAC6 [3]; Conc. 5.08E-09 M): 300973
- HDAC3 activity raw data (signal) (HDAC3; Conc. 1.00E-04 M): -14418
- HDAC3 activity raw data (signal) (HDAC3; Conc. 1.11E-05 M): 6191
- HDAC3 activity raw data (signal) (HDAC3; Conc. 1.23E-06 M): 36941
- HDAC3 activity raw data (signal) (HDAC3; Conc. 1.37E-07 M): 210610
- HDAC3 activity raw data (signal) (HDAC3; Conc. 1.52E-08 M): 383928
- HDAC3 activity raw data (signal) (HDAC3; Conc. 3.33E-05 M): -3999
- HDAC3 activity raw data (signal) (HDAC3; Conc. 3.70E-06 M): 13003
- HDAC3 activity raw data (signal) (HDAC3; Conc. 4.12E-07 M): 93966
- HDAC3 activity raw data (signal) (HDAC3; Conc. 4.57E-08 M): 285917
- HDAC3 activity raw data (signal) (HDAC3; Conc. 5.08E-09 M): 409923
- IC50 (HDAC2 [4]): 95 nM

Compound: N=C(N)NCCC[C@@H]1NC(=O)[C@@H](CCCNC(=N)N)NC(=O)[C@H]2CCCN2C(=O)[C@@H](Cc2c[nH]cn2)NC(=O)[C@H](Cc2ccc(O)cc2)NC(=O)[C@H](CCCCCS)NC(=O)[C@H](CCc2ccccc2)NC(=O)[C@@H](CCC(N)=O)NC(=O)[C@H](CC(=O)O)NC1=O [des3.3.0, SHA-Tyr-dHis-dPro-dArg- Arg-Asp-dGln-C27] (HELM PEPTIDE1{D.[dQ].[O=C([C@H](CCc1ccccc1)N[*:1])[*:2]].[O=C([C@H](CCCCCS)N[*:1])[*:2]].Y.[dH].[dP].[dR].R}$PEPTIDE1,PEPTIDE1,1:R1-9:R2$$$V2.0)
- IC50 (HDAC2 [2]; figure legends, Supp. Table 1, read-out: HDAC2 IC50): 9.1 nM
- IC50 (HDAC6 [3]; figure legends, Supp. Tables 1 and 8, read-out: HDAC6 IC50): 11.6 nM
- IC50 (HDAC1 [5]): 4.2 nM
- IC50 (HDAC3; Supp. Table 1): 6.4 nM
- IC50 (HDAC8): 244 nM
- IC50 (HDAC2 [4]): 10 to 100 nM

Compound: Cyl-2
- IC50 (HDAC1 [6]): 0.7 ± 0.45 nM
- IC50 (HDAC6 [1]; Supp. Table 1): 40000 nM

Compound: Trapoxin B
- IC50 (HDAC4): 0.3 ± 0.03 nM
- IC50 (HDAC6 [1]; Supp. Table 1): 360 ± 160 nM
